Experimental findings from US8188105B2, “Therapeutic agent for inflammatory bowel disease comprising uracil derivative as active ingredient” (Taiho Pharmaceutical Co., Ltd., priority 2007, dated 2012) are described below.

The experiment deals with DSS-induced mouse colitis. Description: Effect on improvement of pathological conditions in DSS-induced IBD model. The experiment is classed as in vivo, mice (C57BL/6N Jcl). Set-up: DAI Score (MEANS ± SD): scale not given here. The note with it: 2% DSS day 1 to day 7, drug 30 mg/kg/day day 0 to day 7; for Abnormal stool occurrence: mice with abnormal stool (loose stool, diarrhea, blood in stool) counted on day 8, n=6 per group, control 6, non-treatment 0; for DAI Score (MEANS ± SD): DAI scores per Table 1 (body weight loss, stool hardness, fecal occult blood), day 8, control 5.3 ± 2.1. On the procedure: This test was performed in accordance with the method described in PEDIATRIC RESEARCH, Vol. 53, No. 1, 143-147, 2003. […] Dextran sulfate sodium (hereinafter abbreviated as “DSS,” product of Wako Pure Chemical Industries, Ltd.) was dissolved in purified water to 2% w/v, and the solution was fed ad libitum to the mice for seven days through a liquid-feed bottle (day 1 to day 7), to thereby establish ulcerative colitis models. The test groups included a drug-non-administration group (control), and a uracil derivative (1)-administration (30 mg/kg/day) group. A non-treatment group was provided through feeding purified water instead of 2% aqueous DSS solution. The drug was administered for eight days from one day before start of feeding 2% aqueous DSS solution (i.e., from day 0 to day 7). The improvement effect was determined on the day following the final drug administration day (on day 8) by counting occurrence of abnormal stools (loose stool, diarrhea, and visual observation of presence of blood in stool).

The structures appear in SMILES notation.

Turning to `CNCc1[nH]c(=O)[nH]c(=O)c1Cl` [Compound 1, 5-chloro-6-(methylaminomethyl)uracil], the Abnormal stool occurrence is given as 4.
Still for that read-out and setting: the value for `O=c1[nH]c(CN2CCCC2)c(Cl)c(=O)[nH]1` [Compound 2, 5-chloro-6-(1-pyrrolidinylmethyl)uracil] was 3; that for `CN(CCO)Cc1[nH]c(=O)[nH]c(=O)c1Cl` [Compound 3, 5-chloro-6-((N-(2-hydroxyethyl)-N-methylamino)methyl)uracil] was 3.
Turning to `Cl.O=c1[nH]c(CSc2nnc[nH]2)c(Cl)c(=O)[nH]1` [Compound 4, 5-chloro-6-(1,2,4-triazole-3-thiomethyl)uracil hydrochloride salt], the “DAI Score (MEANS ± SD)” value was found to be 0.22 ± 0.27 and the Abnormal stool occurrence is 0.
On the same counts, the results for `N=C1NCCN1Cc1[nH]c(=O)[nH]c(=O)c1Cl` [Compound 5, 5-chloro-6-(1-(2-iminoimidazolidinyl)methyl)uracil] are 0.28 ± 0.25 and 0.
For the molecule `O=c1[nH]c(CN2CCCC2)c(Br)c(=O)[nH]1` [Compound 6, 5-bromo-6-(1-pyrrolidinylmethyl)uracil], the “DAI Score (MEANS ± SD)” value came out at 0.22 ± 0.27 and the Abnormal stool occurrence is reported as 2.
